Data from patent US20240425568A1, “COMBINATION THERAPIES FOR HIV INFECTIONS AND USES THEREOF” (VIIV HEALTHCARE COMPANY, priority 2021, published 2024).
Where two headings read alike, the source gives them in different places.

Columns and labels:
[1] = test system: HIV infected CD4+ T cells; test: ADCC assay: NK-directed killing of HIV infected CD4+ T cells; type: cell-based, human (infected with HIV-1 lab strain IIIB); conditions: for NK-directed killing of HIV infected cells mediated by CD4 binding site bnAbs (ADCC): temsavir 50 nM-0.08 nM for 16-24 hours, antibodies 5 ug/mL, Raltegravir in medium
Procedure: Isolation and preparation of target and effector cells: Peripheral blood mononuclear cells (PBMCs) were obtained by continuous-flow leukapheresis from healthy donors, isolated by ficoll-hypaque density gradient centrifugation and cryopreserved in the vapor phase of liquid nitrogen. PBMCs were rapidly thawed to room temperature in a 37° C. water bath and resuspended in RPMI 1640 media supplemented with 10% fetal calf serum. For the target cells, CD4+T lymphocytes were purified using immunomagnetic negative selection beads as per the manufacturer's instructions (StemCell Technologies). The cells were activated with phytohemagglutinin-P (Sigma; PHA-P; 5 μg/mL) for 72 hours at 37° C., 5% CO2 and then maintained under the same incubation conditions in RPMI 1640 medium supplemented with 10% fetal calf serum plus 50 U/mL recombinant IL-2. Natural Killer (NK) effector cells were purified from autologous PBMCs using immunomagnetic negative selection beads as per the manufacturer's instructions (StemCell Technologies). The cells were maintained in RPMI 1640 medium supplemented with 10% fetal calf serum and incubated at 37° C., 5% CO2 for 24 hr prior to ADCC assay.
Infection of target cells: HIV-1 lab strain IIIB was used to infect the activated CD4+T lymphocytes by spin infection at 1200×g for 1.5 hours in 24-well plates at 25° C. in the presence of 25 μg/mL DEAE-Dextran. The infected cells were collected, washed and resuspended in RPMI 1640 medium supplemented with 10% fetal calf serum plus 50 U/mL recombinant IL-2 and incubated at 37° C., 5% CO2 for 3 days until infection rates reached above 20%.
ADCC assay: HIV infected CD4^+ T cells (targets) were incubated with cell proliferation dye as per the manufacturer's instructions (eFluor670; eBioscience) and plated in 96-well U-bottom plates. Temsavir was dissolved in DMSO and diluted into RPMI 1640 medium supplemented with 10% fetal calf and serially titrated in the same medium in 5-fold increments for a dose range of 50 nM-0.08 nM. […]
The cells were then stained intracellularly for HIV-1 p24, using the Cytofix/Cytoperm Fixation/Permeabilization Kit (BD Biosciences) with subsequent addition of anti-p24 mAb (FITC anti-p24, clone KC57; Beckman Coulter/Immunotech; 1:200 final concentration) for 20-30 minutes at room temperature. […] The percentage of specific killing was calculated with the following formula: (% of p24^+ cells in Targets plus Effectors)−(% of p24^+ cells in Targets plus Effectors plus Abs)/(% of p24^+ cells in Targets alone without antibody or temsavir) by gating on live target cells.

[2] = molecular target: T1, cell surface expressed HIV-1 envelope (Human immunodeficiency virus type 1 group M subtype B, UniProt P04578); type: cell-based, HIV-1 lab strain HxB2; conditions: for overall percentage of cells that contained bound bnAbs: 0.5 uM temsavir compared to DMSO only treated cells, FIG. 2; for binding of bnAb to the cell surface of CD4+/p24+ cells (mean fluorescent intensity, MFI): HIV infected cells treated with 0.5 uM temsavir for 24 hr, compared to DMSO only treated cells, bnAb 50 ug/mL to 0.01 ug/mL, FIG. 1
T1 construct: cell surface expressed HIV-1 envelope from a productive infection of human CD4^+ T cells; endogenous in cells; host or cells: primary human CD4+ T cells (from healthy-donor PBMCs) productively infected with HIV-1 HxB2 virus
Procedure: Preparation and HIV-1 infection of target cells: Peripheral blood mononuclear cells (PBMCs) were obtained by continuous-flow leukapheresis from healthy donors, isolated by ficoll-hypaque density gradient centrifugation and cryopreserved in the vapor phase of liquid nitrogen. PBMCs were rapidly thawed to room temperature in a 37° C. water bath and cultured in assay medium (RPMI 1640 media supplemented with 10% fetal calf serum plus 30 U/mL recombinant IL-2) containing 2 ug/mL phytohemagglutinin-P (Sigma) for three days in a humidified incubator at 37° C., 5% CO2. CD4^+ T cells were isolated by negative selection (Stemcell Technologies), washed twice and resuspended with assay medium at a final density of 1-2×10^6 cells/mL and incubated at 37° C., 5% CO2 overnight. Cells were centrifuged at 500×g for 10 minutes, resuspended with assay medium at 5×10^6 cell/mL and 200 uL (1×10^6 total cells) were distributed to 24-well tissue culture treated plates. An HIV-1 lab strain, HxB2 virus, previously propagated in human PBMC cells, was diluted with assay medium containing 50 ug/mL DEAE-dextran and 200 uL was added to the cells in the 24-well plates. The plates were centrifuged at 1,200×g for 1.5 hours and the infected cells were collected and pooled in a 50 ml conical tube. The infected cells were washed twice and resuspended in assay medium to a final density of 1-2×10^6 cells/mL and incubated at 37° C., 5% CO2 for three days.
Treatment of HIV-infected target cells with temsavir and N6 bnAbs: HIV infected cells were centrifuged at 500×g for 10 minutes, resuspended with assay medium at 3×10^6 cell/mL and 50 uL (150,000 total cells) were distributed to 96-well, U-bottom tissue-culture treated plates. […] The antibodies were eluted and diluted in buffer consisting of 150 mM Arginine, 50 mM Sodium acetate, pH 5.5, 150 mM NaCl) were serially titrated in assay medium and added to the temsavir-treated cells for a final concentration range of 50 ug/mL to 0.01 ug/mL. The plates were incubated at 37° C., 5% CO2 for 30 minutes.
Flow cytometry: The assay plates were removed from the incubator and the cells were pelleted by centrifugation at 500×g for 2 minutes at 25° C. The cells were washed twice by mixing with 200 μL of ice cold wash buffer (phosphate buffered saline containing 2% fetal calf serum) with centrifugation at 500×g for 2 minutes at 25° C. for each wash cycle. […] The stained cells were washed twice with wash buffer as indicated above, acquired on a Fortessa cytometer (BD Biosciences) and the data were analyzed by mean fluorescent intensity (MFI) using FlowJo v10.8 software (Tree Star).

## COc1cnc(-n2cnc(C)n2)c2[nH]cc(C(=O)C(=O)N3CCN(C(=O)c4ccccc4)CC3)c12 [temsavir, 1-(4-benzoylpiperazin-1-yl)-2-[4-methoxy-7-(3-methyl-1,2,4-triazol-1-yl)-1H-pyrrolo[2,3-c]pyridin-3-yl]ethane-1,2-dione]
[1]; effector cells eliminated from the assay, FIG. 4
  cell death of HIV infected primary cells in the absence of effector cells: does not lead to cell death
[1]; NK effector-to-target ratio 3:1, 24 hours, FIG. 3
  NK-directed killing of HIV infected cells mediated by CD4 binding site bnAbs (ADCC): Dose dependent temsavir enhancement
[1]; NK effector-to-target ratio 3:1, 24 hours, FIG. 3, listed as Temsavir
  NK-directed killing of HIV infected cells mediated by CD4 binding site bnAbs (ADCC): enhances
[2]
  overall percentage of cells that contained bound bnAbs: significant increase
  binding of bnAb to the cell surface of CD4+/p24+ cells (mean fluorescent intensity, MFI): enhancement
[2]; listed as Temsavir
  overall percentage of cells that contained bound bnAbs: enhancement

## N6-LAGA: Fc binding-reduced N6 antibody, constant domain comprising L235A and G237A mutations; HC SEQ ID NO: 13
[1]; with temsavir titration 50 nM-0.08 nM, antibody 5 ug/mL, NK effector-to-target ratio 3:1, 24 hours, FIG. 3
  magnitude of killing (maximum), percentage of specific killing: 25%
[2]
  binding of bnAb to the cell surface of CD4+/p24+ cells (mean fluorescent intensity, MFI): substantial increase
